Results reported in patent US20230255964A1, “EXTENDED RELEASE DOSAGE FORMS FOR TYK2 INHIBITORS” (Bristol-Myers Squibb Company, priority 2019, published 2023).

Experiments:
[1] = Chemical stability of BMS-986165:HPMCAS-H SDDs upon storage (related substances); assay type: physicochemical; settings: API standard, no stability condition printed
Method: Lots of 25% w/w BMS-986165 SDD with HPMCAS-H were assessed for physical and chemical stability. […] Dissolution performance in the microcentrifuge test was unchanged.
There was no evidence of crystallization by PXRD in any SDD after storage for up to 6 months at 40° C./75%RH open (FIG. 1A and FIG. 1B). DSC data indicated slight changes similar to those observed in 25% w/w BMS-986165 SDD after exposure to 50° C./75%RH or 40° C./75%RH but there was no trend with API loading and the results were considered to reflect an “ageing” or “annealing” effect rather than crystal formation. Scanning electron microscopy (SEM) images confirmed the presence of a single phase homogenous dispersion (FIGS. 2A-C, FIGS. 3A-C, FIGS. 4A-C).

[2] = pH-dependent solubility; assay type: physicochemical; settings: pHs > 4
Source text: For immediate release formulations, such pH-dependent properties may result in a reduction in bioavailability when dosed with acid reducing agents, such as, e.g., famotidine or omeprazole. […] While using the higher-energy, amorphous free base form of BMS-986165 helps address the above challenges, formulating amorphous BMS-986165 presents other challenges, including ensuring physical stability of the amorphous form during storage, and maintaining supersaturation of the compound during dissolution in the GI tract.

BMS-986165 (relative ret. time 1.00), related substances [1]	Total imporities >LOQ [1]	solubility [2]	Structure (SMILES)
99.48	0.52%	–	[2H]C([2H])([2H])NC(=O)c1nnc(NC(=O)C2CC2)cc1Nc1cccc(-c2ncn(C)n2)c1OC [BMS-986165, 6-(cyclopropaneamido)-4-((2-methoxy-3-(1-methyl-1H-1,2,4-triazol-3-yl)phenyl)amino)-N-(methyl-d3)pyridazine-3-carboxamide]
–	–	low solubility	[2H]C([2H])([2H])NC(=O)c1nnc(NC(=O)C2CC2)cc1Nc1cccc(-c2ncn(C)n2)c1OC [BMS-986165 crystalline free base, 6-(cyclopropaneamido)-4-((2-methoxy-3-(1-methyl-1H-1,2,4-triazol-3-yl)phenyl)amino)-N-(methyl-d3)pyridazine-3-carboxamide]
